# Test results as given in ChEMBL document CHEMBL1127773, “Inhibition of steroid 5-reductase by inverted, competitive inhibitors” (Bioorg Med Chem Lett, 1994).
# Target: T1, 3-oxo-5-alpha-steroid 4-dehydrogenase 2 (Homo sapiens, UniProt P31213)
# T1 sequence (P31213 whole entry): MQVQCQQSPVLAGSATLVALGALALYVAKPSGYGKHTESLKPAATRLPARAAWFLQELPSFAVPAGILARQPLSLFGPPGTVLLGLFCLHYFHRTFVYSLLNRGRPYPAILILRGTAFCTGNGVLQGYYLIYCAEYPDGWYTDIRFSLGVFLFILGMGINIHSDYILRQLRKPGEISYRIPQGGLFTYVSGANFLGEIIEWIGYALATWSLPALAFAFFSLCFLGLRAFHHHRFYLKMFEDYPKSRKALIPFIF
# Assay: Inhibitory activity against human prostatic Steroid 5-alpha-reductase
row,IC50 [µM],Compound
1,> 100,CC(C)N(C(=O)[C@@H]1C[C@@H]2CCC3C4CCC(=O)N(C)[C@@]4(C)CCC3[C@@]2(C)C1)C(C)C (stereo partly drawn)
2,40,CC(C)N(C(=O)[C@@H]1CC2CCC3C(CC[C@@]4(C)C3CCC(=O)N4C)[C@@]2(C)C1)C(C)C (stereo partly drawn)
3,0.0086,CCN(CC)C(=O)[C@H]1CC[C@H]2[C@@H]3CC[C@H]4N(C)C(=O)CC[C@]4(C)[C@H]3CC[C@]12C
4,15,CN1C(=O)CCC2C3CC[C@H]4CC(=O)CC[C@]4(C)C3CC[C@@]21C (stereo partly drawn)
5,4,CN1C(=O)CCC2C3CC[C@H]4C[C@@H](O)CC[C@]4(C)C3CC[C@@]21C (stereo partly drawn)
6,12,CN1C(=O)CCC2C3CCC4[C@@H](O)CC[C@]4(C)C3CC[C@@]21C (stereo partly drawn)
7,32,CN1C(=O)CCC2C3CC=C4C[C@@H](O)CC[C@]4(C)C3CC[C@@]21C (stereo partly drawn)

row,Compound,IC50 [µM]
1,CN1C(=O)CC[C@@]2(C)C1CC[C@H]1[C@@H]3CC[C@H](O)[C@@]3(C)CC[C@@H]12 (stereo partly drawn),> 0.43
